Reference: publication PMC4058456, “Jacobsen Catalyst as a Cytochrome P450 Biomimetic Model for the Metabolism of Monensin A” (BioMed Research International, 2014)
Converted amounts (≈) assume the structure as drawn. Where two headings read alike, the source gives them in different places. Marks after values point to notes of the source that are not given here.

Columns and labels:
[1] = test system: Escherichia coli ATCC 25922; experiment: Antimicrobial bioassay, minimal bactericidal concentration (MTT); format: cell-based
Description: (§1) The bioassays were carried out using the strains Staphylococcus aureus ATCC 25923, Staphylococcus aureus ATCC 43300 (MRSA-methicillin resistant), Staphylococcus epidermidis ATCC 14990, Pseudomonas aeruginosa ATCC 27853, and Escherichia coli ATCC 25922 all acquired from the American Type Culture Collection (ATCC). Approximately 5 × 10^5 microorganisms·mL^−1 were incubated in Muller Hinton broth in 96-well microtiter plates containing the samples to be tested. The compounds (monensin A, metabolite 1, and metabolite 2) were dissolved in dimethylsulfoxide (DMSO) and diluted into the medium to give 100, 50, 25, 12.5, 6.3, 3.1, 1.6, 0.8, 0.4, 0.2, 0.1, and 0.05 μg·mL^−1, as their final concentrations. The plates were incubated at 37°C and the bioassays were performed in triplicate. The cell death was determined by a MTT colorimetric method which was described by Andrews and Furtado et al.. The DMSO solution and chloramphenicol were used as controls of the experiment.

[2] = test system: Pseudomonas aeruginosa ATCC 27853; experiment: as above; format: cell-based
Description: as §1

[3] = test system: Staphylococcus aureus ATCC 25923; experiment: as above; format: cell-based; conditions: for MBC: Staphylococcus aureus
Description: as §1

[4] = test system: Staphylococcus aureus ATCC 43300 (MRSA-methicillin resistant); experiment: as above; format: cell-based; conditions: for MBC: Staphylococcus aureus, read-out: Minimal bactericidal concentration
Description: as §1

[5] = test system: Staphylococcus epidermidis ATCC 14990; experiment: as above; format: cell-based
Description: as §1

[6] = test system: rat liver mitochondria; experiment: Mitochondrial respiration (oxygen consumption, Clark-type electrode); conditions: 1 μM
Description: (§2) Monensin A was diluted in ethanol to concentrations 0.01, 0.1, and 1 μM. All assays were performed in three replicates. Rat liver mitochondria were isolated by standard differential centrifugation according to Pereira et al. and the mitochondrial protein content was determined by the biuret method.
Mitochondrial respiration was monitored polarographically with an oxygraph (Hansatech) equipped with a Clark-type oxygen electrode. The mitochondria (1.0 mg protein) were incubated at 30°C in 1 mL of the respiratory medium containing 125 mM sucrose, 65 mM KCl, 10 mM HEPES-KOH, 0.5 mM EGTA, and 10 mM K2HPO4; pH 7.2. 5 mM glutamate and malate were used as the oxidizable substrates for complex I; and mitochondrial oxidative phosphorylation (state 3) was initiated using 400 nmol ADP.

[7] = test system: S. aureus ATCC 25923; parameters: method as in PMID 23509771; conditions: cited from earlier work
[8] = test system: rat liver mitochondria; experiment: Mitochondrial ROS production (H2DCFDA); conditions: 1 μM
Description: as §2
Mitochondrial reactive oxygen species (ROS) production was monitored spectrofluorimetrically with 2′,7′-dichlorodihydrofluorescein diacetate (H2DCFDA) with the 503/529 nm excitation/emission wavelength pair, both using the standard reaction medium.

[9] = Biomimetic oxidation of monensin A catalysed by Jacobsen catalyst (CYP450 model), HPLC-ESI-MS; format: in vitro ADME; conditions: catalyst:oxidant:monensin A 1:20:20, CH2Cl2, room temperature, 24 h
Description: Based on the previous studies by this laboratory, the oxidation reactions were performed in an Eppendorf tube (2 mL), under mechanical stirring (Vibrax VXR agitator) at room temperature for 24 h. The ideal molar ratio obtained for the reaction was 1 : 20 : 20 (for catalyst : oxidant : monensin A). This was achieved by adding 0.3 mmol·L^-1 : 6 mmol·L^-1 : 6 mmol·L^−1 in the 0.5 mL of reaction medium (CH2Cl2). The oxidants were m-CPBA, PhIO, t-BOOH, and H2O2. The products from monensin A oxidation were analyzed by HPLC-ESI-MS. Control reactions were carried out in the absence of catalyst under the same conditions as the catalytic runs and no products were detected.
LC-ESI-MS analyses were performed on a Varian LC-MS 1200L triple quadrupole apparatus coupled to a mass spectrometer with ESI ionization in the positive mode (Varian Medical Systems Inc., Palo Alto, CA). The chromatographic analysis was performed using an injection volume of 10 μL, sample concentration 50 μg·mL^−1 in an Xterra analytical column MS C-18 (150 × 2.1 mm, 5 μm) (Waters) and following gradient (MeOH : H2O): 0.1 min 70% MeOH, 20.0 min 98% MeOH, 21.0 min 30% MeOH, and 30.0 min 70% MeOH. The MS conditions were capillary voltage 3.2 kV, cone voltage 40 V, source temperature 40°C, and N2 desolvation temperature 350°C. The percentage of monensin A oxidation was determined by using a calibration curve of 10–100 μg·mL^−1. The resulting mass spectra were monitored over a m/z range of 610 to 800.

[10] = test system: S. epidermidis ATCC 35984; parameters: method as in PMID 23509771; conditions: cited from earlier work
[11] = test system: rat liver mitochondria; experiment: Mitochondrial membrane potential (safranin-o fluorescence); conditions: 1 μM
Description: as §2
Mitochondrial Membrane potential (ΔΨ) was monitored spectrofluorimetrically using 10 μM safranin-o as a probe in a F-4500 spectrofluorometer (Hitachi) with the 495/586 nm excitation/emission wavelength pair. The mitochondria (1.0 mg protein·mL^−1) were incubated at 30°C in 2 mL of the standard reaction medium containing 125 mM sucrose, 65 mM KCl, and 10 mM HEPES-KOH, and CCCP (carbonyl cyanide 3-chlorophenylhydrazone) was added at the end of each experiment for the complete dissipation of the membrane potential.

[12] = test system: S. epidermidis ATCC 12228; parameters: method as in PMID 23509771; conditions: cited from earlier work
[13] = test system: rat liver mitochondria; experiment: Mitochondrial swelling (apparent absorbance at 540 nm); conditions: 1 μM
Description: as §2
Mitochondrial swelling was estimated from the decrease in apparent absorbance at 540 nm performed with a Model DU-70 spectrophotometer (Beckman). The mitochondria were incubated using 30°C in 2 mL of the standard reaction medium.

[14] = test system: Bacillus subtilis; parameters: method as in PMID 17702333; conditions: bioautography against Bacillus subtilis; cited from earlier work
[15] = test system: Streptococcus faecalis; parameters: method as in PMID 17702333; conditions: turbidimetric assay against Streptococcus faecalis; cited from earlier work
[16] = ATCC25922, E. coli ATCC 25922, read-out: Minimal bactericidal concentration
[17] = ATCC27853, P. aeruginosa ATCC 27853, read-out: Minimal bactericidal concentration
[18] = ATCC25923, S. aureus ATCC 25923, read-out: Minimal bactericidal concentration
[19] = ATCC14990, S. epidermidis ATCC 14990, read-out: Minimal bactericidal concentration
[20] = isolated rat liver mitochondria 1.0 mg protein·mL−1

Row | Structure (SMILES) | MBC [1, 16] [µg/mL] | MBC [2, 17] [µg/mL] | MBC [3, 18] [µg/mL] | MBC ([4]; S. aureus ATCC 43300 (MRSA)) [µg/mL] | MBC [5, 19] [µg/mL] | effect on mitochondrial respiratory parameters (in words) [6] | ADP/O (phosphorylation efficiency) [6, 20] | RCR (respiratory control ratio) [6, 20] | V3 (state 3 respiration rate) [6, 20] | V4 (state 4 respiration rate) [6, 20] | effect on mitochondrial ROS accumulation (in words) [8] | Minimal bactericidal concentration ([3]; S. aureus ATCC 25923) [µg/mL] | Minimal bactericidal concentration ([4]; S. aureus ATCC 43300 (MRSA)) [µg/mL] | effect on mitochondrial membrane potential (in words) [11] | effect on mitochondrial swelling (in words) [13] | also measured
1 | O=C(N[C@H](CO)[C@H](O)c1ccc([N+](=O)[O-])cc1)C(Cl)Cl [Chloramphenicol, chloramphenicol, reference compound] | 3.1 (≈ 9.59 µM) | 100 (≈ 309 µM) | 6.3 (≈ 19.5 µM) | 8.3 (≈ 25.7 µM) | 6.3 (≈ 19.5 µM) |  |  |  |  |  |  |  |  |  |  | 
2 | CC[C@@]1([C@@H]2O[C@@H]([C@H]3O[C@@](O)(CO)[C@H](C)C[C@@H]3C)C[C@@H]2C)CC[C@H]([C@]2(C)CC[C@]3(C[C@H](O)[C@@H](C)[C@@H]([C@@H](C)[C@@H](OC)[C@H](C)C(=O)O)O3)O2)O1 [Monensin A] | > 100 | > 100 | 3.1 (≈ 4.62 µM) | 6.3 (≈ 9.39 µM) | 25 (≈ 37.3 µM) |  |  |  |  |  |  |  |  |  |  | ADP/O (phosphorylation efficiency) ([6]; rat, pH 7.2): 1.498 ± 0.01^b; RCR (respiratory control ratio) ([6]; rat, pH 7.2): 4.548 ± 0.16^b; V3 (state 3 respiration rate) ([6]; rat, pH 7.2): 64.097 ± 2.35^a nmol O2/mg protein/min; V4 (state 4 respiration rate) ([6]; rat, pH 7.2): 14.12 ± 0.97^b nmol O2/mg protein/min; decrease of respiratory control ratio (RCR) ([6]; rat, pH 7.2): 32.59%; increase of state 4 of oxygen consumption ([6]; rat, pH 7.2): 44.11%; reduction in ADP/O ([6]; rat, pH 7.2): 47.73%; antimicrobial activity concentration [7]: 2.9 µg/mL; increase in accumulation of free radicals (ROS) ([8]; rat): 12.14%; monensin conversion ([9]; oxidant H2O2): 26%; monensin conversion ([9]; oxidant PhIO): 36%; monensin conversion ([9]; oxidant m-CPBA): 27%; monensin conversion ([9]; oxidant t-BOOH): 14%; antimicrobial activity concentration [10]: 5.8 µg/mL; decrease on the mitochondrial membrane potential ([11]; rat): 23.29%; antimicrobial activity concentration [12]: 2.9 µg/mL; mitochondrial swelling, effect on the apparent turbidity ([13]; rat): 54.61%
3 | CCC1(C2OC(C3OC(O)(CO)C(C)CC3C)CC2C)CCC(C2(C)CCC3(CC(O)C(C)C(C(C)C(O)C(C)C(=O)O)O3)O2)O1 (centres unmarked) [Product 1, 3-O-demethyl monensin A] |  |  |  |  |  | none of these detrimental effects | 2.757 ± 0.09^a | 6.623 ± 0.27^a | 66.363 ± 2.29^a nmol O2/mg protein/min | 10.02 ± 0.11^a nmol O2/mg protein/min | no effect | 25.0 (≈ 38.1 µM) | 50.0 (≈ 76.1 µM) | no effect | no effect | MBC ([1]; ATCC25922, read-out: Minimal bactericidal concentration): > 100 µg/mL; MBC ([2]; ATCC27853, read-out: Minimal bactericidal concentration): > 100 µg/mL; MBC ([3]; ATCC25923, read-out: Minimal bactericidal concentration): 25 µg/mL (≈ 38.1 µM); MBC [4]: 50 µg/mL (≈ 76.1 µM); MBC ([5]; ATCC14990, read-out: Minimal bactericidal concentration): > 100 µg/mL; antimicrobial activity relative to monensin [14]: 5%; antimicrobial activity relative to monensin [15]: 5%
4 | CCC1(C2OC(C3OC(O)(CO)C(C)C(O)C3C)CC2C)CCC(C2(C)CCC3(CC(O)C(C)C(C(C)C(OC)C(C)C(=O)O)O3)O2)O1 (centres unmarked) [Product 2, 12-hydroxy monensin A] | > 100 | > 100 | > 100 | > 100 | > 100 | none of these detrimental effects | 2.728 ± 0.06^a | 6.786 ± 0.15^a | 66.730 ± 1.95^a nmol O2/mg protein/min | 9.832 ± 0.07^a nmol O2/mg protein/min | no effect | > 100 | > 100 | no effect | no effect | 
